# “Also recorded” adds a separate entry of the source.
# Assays:
# diabetogenic T cells = assay: Immunization of BDC-2.5 TCR-Tg NOD mice with WE14; spleen cell IFNγ ELISA; type: in vivo; conditions: WE14 50 mg in CFA day 0, boost in IFA day 7; spleen cells day 14, WE14 100 mg or 200 mg as antigen
# Experimental: In one experiment, BDC-2.5 TCR-Tg NOD mice were immunized with WE14 ([…]) in complete Freund's adjuvant (CFA) at day 0 and boosted with WE14 in incomplete Freund's adjuvant (IFA) at day 7. Spleen cells were harvested 14 days after the initial immunization and assayed by ELISA with WE14 (100 mg or 200 mg) as antigen. […] See, FIG. 16.
# soluble IA^g7 = assay: Peptide binding to IA^g7: competition with biotinylated HEL peptide; parameters: species or system NOD mouse; conditions: competition with biotinylated pHEL 11 μM, pH 5.6, overnight
# Source text: FIG. 15B: A series of ChgA peptides tested for their ability to compete with a biotinylated HEL peptide for binding to soluble IA^g7. pS3-positive control peptide. IE^k moth cytochrome c-negative control peptide. N=2. Y axis: Percent of IA^g7-bound biotinylated HEL peptide as compared to IE^k. X axis: Log concentration of inhibitor peptide.
# In order to confirm the unique binding register of the WE14 peptide, a series of peptides comprising N-terminal extensions and/or C-terminal deletions of WE14 were evaluated for their ability to stimulate the BDC-2.5 T cell clone (FIG. 6a) or to bind to IA^g7. See, FIG. 15A. […] See, FIG. 15B. Further, a pS3 mimotope was used as the positive control peptide and an irrelevant peptide from moth cytochrome c, pMCC, was the negative control peptide. The data were analyzed to determine the stimulatory or binding capacity of the peptides relative to WE14. See, FIG. 15C.
# Soluble IA^g7 with covalently attached pHEL was treated with thrombin to cleave the linker attaching the peptide to the IA^g7 β chain. Kozono et al., “Production of soluble MHC class II proteins with covalently bound single peptides” Nature 369:151-154 (1994). Samples (0.5 μg) were incubated with a soluble biotinylated version of pHEL, Biotin-GGGMKRHGLDNYRGYSL (SEQ ID NO: 56) (11 μM), either alone or in the presence of various concentrations of potential competitors peptides, in 15 μL of pH 5.6 buffer overnight at room temperature. The sample was diluted to 100 μL of PBS in a well of a 96-well ELISA plate coated with an anti-IA^g7 monoclonal antibody, OX-6 (BD Pharmaceuticals). The captured IA^g7 was washed several times with PBS and the bound bio-pHEL detected with alkaline phosphatase coupled Extravadin (Sigma) and […].
# T cell clone BDC-2.5 = assay: IFNγ production by T cell clone in antigen assay (ELISA); type: cell-based, NOD mouse; conditions: for Stimulation of T cell clone BDC-2.5 (IFNγ response), result in words: peptide or preparation as antigen
# Source text: (§1) The T cell clones are maintained in culture by periodic re-stimulation with irradiated NOD splenocytes and islet cells or β-membrane. To assay for antigen, resting responder T cells (i.e., for example, the cells at the end of the two-week restimulation period) are co-cultured for 24 hr with elicited peritoneal macrophages (PEC) as APC and either a test sample or control antigen. Control antigen will be in the form of islet cells or the whole-cell membrane fraction (i.e., for example, a β-membrane fraction). As described above, unlysed β-membrane is stored in aliquots at −80° C. for this purpose. Negative controls include responder cells alone and responders plus APC.
# (§2) At the end of the culture period, supernatants are collected from the cultures and IFNγ production is measured by ELISA. Wells positive for IFNγ are indicative of T cells responding to antigen; the amount of cytokine produced is calculated from a standard curve and is directly proportional to the amount of antigen present.
# (§3) Antigenicity of islet cells, cellular and biochemical fractions, peptides, or insect cells expressing IA^g7-peptide constructs, was assessed through responses of T cell clones or hybridomas made by fusing T cell clones to the TCR^− version of T cell lymphoma, BW5147. White et al., “Two better cell lines for making hybridomas expressing specific T cell receptors” J Immunol 143:1822-1825 (1989). T cell clone cultures typically contained 2×10^4 responder T cells, 2.5×10^4 NOD peritoneal exudate cells (PEC) as APC, and antigen (SEC/IEX fractions, peptides, islet cells); all assays were performed with β-Mem as a positive control. IFNγ was measured by ELISA of culture supernatants. For cultures with T cell hybridomas, antigen/MHC activation was assessed by IL-2 production measured by a bioassay using the HT-2 T cell line. Walker et al., “Antigenspecific. I region-restricted interactions in vitro between tumor cell lines and T cell hybridomas” J Immunol 128:2164-2169 (1982). Synthetic peptides were either produced in the Molecular Resource Center at National Jewish Health or obtained from CHI Scientific, Maynard, Mass.
# T cell clone BDC-5.10.3 = assay: as above; type: cell-based, NOD mouse; conditions: for Stimulation of T cell clone BDC-5.10.3 (IFNγ response), result in words: peptide or preparation as antigen
# Source text: as §1, §2, §3
# T cell clone BDC-10.1 = assay: as above; type: cell-based, NOD mouse; conditions: for Stimulation of T cell clone BDC-10.1 (IFNγ response), result in words: peptide or preparation as antigen
# Source text: as §1, §2, §3
# CD4+ and CD8+ T cells = assay: Immunization of NOD mice with WE14; intracellular IFNγ of pLN and spleen T cells by flow cytometry; type: in vivo; conditions: WE14 100 mg + IFA i.p. day 0, boost day 30; pLN and spleen at seven weeks
# Experimental: In another experiment, NOD mice (3-4 wks old) were immunized intraperitoneally (i.p.) with WE14 (100 mg+IFA) at day 0 and boosted with the same dose of peptide 30 days later. Seven weeks after the initial immunization, pancreatic lymph nodes (pLN) and spleen were harvested and single cell suspensions of these organs were made. The cells were stimulated with anti-CD3 ([…]) and anti-CD28 (2 mg/ml) for 48 hr. PMA/ionomycin and Golgiplug were added for an additional 4 hr. Cells were harvested and analyzed for intracellular IFNγ production by flow cytometry. […] See, FIG. 17.
# NOD.scid recipients = assay: Adoptive co-transfer of diabetes to NOD.scid recipients with spleen cells from WE14-immunized NOD mice; type: in vivo; conditions: 1×10^7 WE14 SC co-transferred i.v. with 1×10^7 diabetic NOD spleen cells
# Experimental: In another experiment, NOD mice (3-4 wks old) were immunized with WE14+IFA and 13 days later, single cell suspensions of the spleens (WE14 SC) were prepared. WE14 SC (1×10^7) were co-transferred with spleen cells obtained from a diabetic NOD mouse (1×10^7) into adult NOD.scid recipients by Intravenous (i.v.) injection. Urine glucose was monitored daily following cell transfer and hyperglycemia was confirmed by blood glucose readings.
# BDC-2.5 TCR = assay: Binding of fluorescent multimeric soluble BDC-2.5 TCR to IA^g7-peptide on insect cells (flow cytometry); parameters: species or system mouse; conditions: oligomerized
# Source text: FIG. 13B: Use of a fluorescent, oligomerized, soluble BDC-2.5 TCR to enrich from the library a virus encoding an IA^g7-mimotope (i.e., for example, pS3) that forms a strong ligand with a BDC-2.5 TCR.
# The amino acids at p1, p2, p3, p5, p7 and p8 were fully randomized to all 20 amino acids. See, FIG. 13A. Insect cells were infected with the library at a multiplicity of infection of <1 such that most infected cells expressed a single member of the library. The few infected cells expressing an IA^g7-peptide combination capable of binding a fluorescent, soluble, multimeric version of BDC-2.5 TCR were isolated using flow cytometry. See, FIG. 13B, panel 1). These cells were used to create a new enriched viral stock. […]
# The PCR DNA fragment encoding the library was cloned directly into baculovirus DNA already encoding the IA^g7 genes, attached via a linker to the N-terminus of the β chain. […] Insect cells infected with the library at a multiplicity of infection of <1 were analyzed by flow cytometry for cells that expressed IA^g7 (OX-6 Mab, BD-Pharmingen) and also bound a multivalent TCR reagent consisting of the soluble BDC-2.5 TCR captured by a biotinylated anti-Cα Mab, ADO-304, bound to Alexafluor-647 labeled streptavidin (Molecular Probes). […] The peptide sequence encoded in the positive clones was determined.
# [1] = test system: BDC-5.10.3 T cell hybridoma; assay: IL-2 production by T cell hybridoma stimulated with ICAM/B7 insect cells displaying IA^g7-peptide; type: cell-based, mouse; conditions: covalent IA^g7-peptide complex on B7/ICAM insect cells; 24 hrs
# Experimental: (§4) FIG. 13C: Three BDC T cell hybridomas stimulated in culture either with: i) immobilized H597 anti-TCR Cβ Mab; ii) ICAM/B7 expressing SF9 cells infected with virus encoding IA^g7 with a HEL peptide; or ii) ICAM/B7 expressing SF9 cells infected with virus encoding IA^g7 with pS3. IL-2 production was assayed after 24 hrs.
# (§5) T cell hybridomas bearing TCR from either the BCD-2.5, BDC-10.1 or BDC-5.10.3 T cell clones were tested for their ability to recognize the covalent IA^g7-p53 complex using B7/ICAM-expressing insect cells as artificial APCs. See, FIG. 13C; Crawford et al., “Mimotopes for alloreactive and conventional T cells in a peptide-MHC display library” PloS Biol 2:E90 (2004); and Crawford et al., “Use of baculovirus MHC/peptide display libraries to characterize T-cell receptor ligands” Immunol Rev 210: 156-170 (2006).
# as §3
# [2] = test system: BDC-10.1 T cell hybridoma; assay: as above; type: cell-based, mouse; conditions: covalent IA^g7-peptide complex on B7/ICAM insect cells; 24 hrs
# Experimental: as §4, §5, §3
# BDC-2.5 T cell hybridoma = assay: as above; type: cell-based, mouse; conditions: covalent IA^g7-peptide complex on B7/ICAM insect cells; 24 hrs
# Experimental: as §4, §5, §3
# T cell clone PD-12.4.4 = assay: IFNγ production by insulin-reactive control T cell clone (ELISA); type: cell-based, NOD mouse; conditions: negative control clone
# Source text: as §1, §2
# Antigenicity of islet cells, cellular and biochemical fractions, peptides, or insect cells expressing IA^g7-peptide constructs, was assessed through responses of T cell clones or hybridomas made by fusing T cell clones to the TCR^− version of T cell lymphoma, BW5147. […] IFNγ was measured by ELISA of culture supernatants. […]
sequence,measurement,setting,value
"WSRMDQLAKELTAE (listed as Mus musculus) [WE14, natural cleavage product of ChgA, aa 359-372]",IFNγ response of the diabetogenic T cells after immunization,diabetogenic T cells,considerably reduced
same,"IA^g7 binding, result in words",soluble IA^g7,can bind
same,Antigen response as percentage of maximal IFN-γ response [% Max],"T cell clone BDC-2.5; 100 mg/ml peptide, 100 mg/ml β-membrane = 100%",~15%
same,"Potency in activating the BDC clones, fold less potent than the pS3 mimotope","T cell clone BDC-2.5; BDC-2.5, synthetic peptide",at least 1000 fold
same,"Stimulation of T cell clone BDC-2.5 (IFNγ response), result in words",T cell clone BDC-2.5,weak stimulator; also recorded: weakly stimulated; also recorded: considerably less potent; also recorded: only very weakly
same,"Stimulation of T cell clone BDC-2.5 (IFNγ response), result in words",T cell clone BDC-2.5; listed as WE-14,stimulated
same,"Potency in activating the BDC clones, fold less potent than the pS3 mimotope","T cell clone BDC-5.10.3; BDC-5.10.3, synthetic peptide",at least 1000 fold
same,"Stimulation of T cell clone BDC-5.10.3 (IFNγ response), result in words",T cell clone BDC-5.10.3,stimulated; also recorded: considerably less potent
same,"Stimulation of T cell clone BDC-5.10.3 (IFNγ response), result in words",T cell clone BDC-5.10.3; listed as WE-14,stimulated
same,"Potency in activating the BDC clones, fold less potent than the pS3 mimotope","T cell clone BDC-10.1; BDC-10.1, synthetic peptide",at least 1000 fold
same,"Stimulation of T cell clone BDC-10.1 (IFNγ response), result in words",T cell clone BDC-10.1,stimulated; also recorded: considerably less potent
same,"Stimulation of T cell clone BDC-10.1 (IFNγ response), result in words",T cell clone BDC-10.1; listed as WE-14,stimulated
same,Inflammatory response (intracellular IFNγ) of CD4+ and CD8+ T cells in lymphoid organs,CD4+ and CD8+ T cells,suppress
same,Onset of disease induced by diabetic NOD spleen cells,NOD.scid recipients,considerably delayed
RLGLWVRME [mimotope from baculovirus IA^g7-peptide library],Binding of IA^g7-mimotope to BDC-2.5 TCR,BDC-2.5 TCR,strong ligand
same,"IA^g7 binding, result in words",soluble IA^g7,higher affinity
same,"Stimulation of T cell clone BDC-2.5 (IFNγ response), result in words",T cell clone BDC-2.5,strongly stimulated
same,"Stimulation of T cell clone BDC-2.5 (IFNγ response), result in words",T cell clone BDC-2.5; listed as pS3,maximally
same,"Stimulation of T cell clone BDC-5.10.3 (IFNγ response), result in words",T cell clone BDC-5.10.3,strongly stimulated
same,"Stimulation of T cell clone BDC-5.10.3 (IFNγ response), result in words",T cell clone BDC-5.10.3; listed as pS3,maximally
same,"Stimulation of T cell clone BDC-10.1 (IFNγ response), result in words",T cell clone BDC-10.1,strongly stimulated
same,"Stimulation of T cell clone BDC-10.1 (IFNγ response), result in words",T cell clone BDC-10.1; listed as pS3,maximally
same,Activation of BDC-5.10.3 hybridoma (IL-2 production),[1],maximally activated
same,Activation of BDC-10.1 hybridoma (IL-2 production),[2],maximally activated
same,Activation of BDC-2.5 hybridoma (IL-2 production),BDC-2.5 T cell hybridoma,maximally activated
same,"Response of insulin-reactive T cell clone PD-12.4.4 (IFNγ), result in words",T cell clone PD-12.4.4,not
